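Cells were grown in 96-well plates and exposed to each compound for 48 hours at five concentrations; endpoints were interpolated linearly between bracketing concentrations, or set to the highest concentration if not reached. GI50 = concentration required for 50% inhibition of growth.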 Calls of active or inactive are those of the source. Rule as the data show it: active = GI50 up to about 1.1 µM and inactive = higher.

Assay in all cases: inhibition of tumour cell growth, NCI panel, 48 h
Assay [1] relates to TK-10.
Assay [2] concerns UACC-257.
Assay [3] concerns COLO 205.
Assay [4] concerns CCRF-CEM.
Assay [5] relates to OVCAR-5.
Assay [6] deals with SK-MEL-2.
Assay [7] deals with K562.
The subject of assay [8] is HCT-15.
Assay [9] concerns LXFL 529.
Assay [10] concerns NCI-H23.
Assay [11] has as its system SF-295.
Assay [12] concerns SNB-19.
The subject of assay [13] is ACHN.
In assay [14] the test system is MOLT-4.
Assay [15] concerns A498.
The test system of assay [16] is SK-OV-3.
The subject of assay [17] is NCI-H226.

As for `O=C(c1ccc(NCN2C(=O)CCC2=O)cc1)c1ccc(NCN2C(=O)CCC2=O)cc1`, the GI50 is > 100 µM (inactive) in [1]; 27.7 µM (inactive) in assay [2]; > 100 µM (inactive) in [3]; > 100 µM (inactive) in [4]; > 100 µM (inactive) in [5]; > 100 µM (inactive) in assay [6]. The GI50 is 67.3 µM (inactive) in assay [7]; 45.2 µM in assay [8]; > 100 µM (inactive) in assay [9]; > 100 µM (inactive) in assay [10]; > 100 µM (inactive) in [11]; > 100 µM (inactive) in assay [12]. For the same molecule, the GI50 in [13] and in assay [14] was > 100 µM (inactive) throughout.
`CN(C)[C@@H]1C(O)=C(C(N)=O)C(=O)[C@@]2(O)C(O)=C3C(=O)c4c(O)cccc4C[C@H]3C[C@@H]12`: the GI50 in assay [1] is 2.52 µM (inactive); in [3] it was 1.77 µM (inactive); in assay [4], 2.37 µM (inactive); in assay [5], 2.09 µM (inactive); in [6], 1.83 µM (inactive); in assay [7] it was 2.51 µM (inactive). The GI50 in assay [8] was 4.8 µM; in assay [9], 1.92 µM (inactive); in [15], 2.2 µM (inactive); in [10], 2 µM (inactive); in assay [11], 1.7 µM (inactive); in assay [12], 1.97 µM (inactive). In addition, the GI50 in assay [13] is 3.74 µM (inactive); in [16], 1.9 µM (inactive); in [14] it was 2.45 µM (inactive).
In the case of `CCOC(=O)[C@H]1Nc2ccccc2C2c3ccccc3CC21` (stereo partly drawn), the GI50 was > 100 µM (inactive) in [1]; 22 µM (inactive) in assay [2]; 64.4 µM (inactive) in [3]; 31.7 µM (inactive) in assay [5]; > 100 µM (inactive) in assay [6]; 38.9 µM (inactive) in [7]. Besides, the GI50 in [8] was 49 µM; in [9] it was 41.6 µM (inactive); in assay [15] it was 24.9 µM (inactive); in assay [10] it was 79.6 µM (inactive); in assay [11] it was 49 µM (inactive); in assay [17] it was > 100 µM (inactive). For the same molecule, the GI50 is > 100 µM (inactive) in assay [12], > 100 µM (inactive) in assay [13] and 24.4 µM (inactive) in assay [14].
Turning to `O=C(Cc1ccccc1)NN1C(=O)C(Cl)C1c1ccc([N+](=O)[O-])cc1` (stereo not drawn), the GI50 in [1] is > 100 µM (inactive); in assay [2], 76.4 µM (inactive); in assay [3] it was > 100 µM (inactive); in assay [4], > 10 µM (inactive); in [5], > 100 µM (inactive); in assay [6] it was > 100 µM (inactive). Also, the GI50 was 65.6 µM (inactive) in assay [7]; 45.5 µM in assay [8]; 95.9 µM (inactive) in assay [9]; 53.5 µM (inactive) in assay [10]; > 100 µM (inactive) in [11]; > 100 µM (inactive) in [17]. Moreover, the GI50 in assay [12] was > 100 µM (inactive); in assay [13], > 100 µM (inactive); in assay [16], > 100 µM (inactive); in [14] it was 53.2 µM (inactive).
For `COc1nc(=O)n(COC(CO)CN2C(=O)c3ccccc3C2=O)cc1Cc1cccc(OCc2ccccc2)c1` (stereo not drawn), the GI50 in [1] was 27 µM (inactive); in assay [3], 19.8 µM (inactive); in assay [4], 24.1 µM (inactive); in assay [6], 15.4 µM (inactive); in assay [7], 24.9 µM (inactive); in assay [8], 28.2 µM. In addition, the GI50 in assay [9] is 30.1 µM (inactive); in assay [10], 27.2 µM (inactive); in assay [11] it was 22.1 µM (inactive); in assay [17], 17.4 µM (inactive); in assay [12], 29.6 µM (inactive); in assay [13] it was 23.7 µM (inactive). The GI50 is 26.5 µM (inactive) in assay [16] and 21.2 µM (inactive) in assay [14].
For the molecule `Cc1nc(C(N)=S)sc1C(=O)CC(=O)C(=O)Nc1ccccc1[N+](=O)[O-]`, the GI50 in [1], in assay [2], in [4], in assay [5], in [6] and in [7] was > 100 µM (inactive) throughout. The GI50 in [8] was greater than 100 µM; in assay [9], > 100 µM (inactive); in assay [15], > 100 µM (inactive); in [10], > 100 µM (inactive); in [11], > 100 µM (inactive); in assay [12], > 100 µM (inactive). Moreover, the GI50 in assay [13], in assay [16] and in [14] was > 100 µM (inactive) throughout.
For `COc1ccc(C2=NN(c3ccccc3)C[N+](c3ccc(OC)cc3)=N2)cc1`, the GI50 is 42.4 µM (inactive) in [1]; 76.2 µM (inactive) in assay [2]; > 10 µM (inactive) in [3]; 23.2 µM (inactive) in assay [4]; 25 µM (inactive) in assay [5]; 19.2 µM (inactive) in assay [7]. Further, the GI50 in assay [8] was 43.7 µM; in assay [9], 17.2 µM (inactive); in assay [15], > 100 µM (inactive); in [10], 29.9 µM (inactive); in assay [11] it was 59.4 µM (inactive); in assay [17], 15.7 µM (inactive). For the same molecule, the GI50 in [12] was 28.4 µM (inactive); in [13] it was 30.3 µM (inactive); in assay [14], 20.3 µM (inactive).
As for `O=C1CC(O)(c2ccccc2)C(c2ccccc2)=C1c1ccccc1` (stereo not drawn), the GI50 in assay [1] was 81.5 µM (inactive); in assay [2], 31.5 µM (inactive); in [3], 17.6 µM (inactive); in assay [4] it was 30.1 µM (inactive); in assay [5] it was > 100 µM (inactive); in assay [6], 25.5 µM (inactive). Besides, the GI50 in assay [7] is 30.5 µM (inactive); in assay [8] it was 32.3 µM; in assay [9], 35.3 µM (inactive); in assay [10] it was 35.9 µM (inactive); in assay [11] it was 32.4 µM (inactive); in assay [13], 38 µM (inactive). The GI50 in assay [16] is > 100 µM (inactive); in assay [14] it was 25.2 µM (inactive).
Turning to `CCOC(=O)Cn1c(=O)n(C)c(=O)c2[nH]cnc21`, the GI50 in assay [1] is > 100 µM (inactive); in assay [3] it was > 100 µM (inactive); in assay [4] it was > 100 µM (inactive); in assay [6], > 100 µM (inactive); in [7] it was > 100 µM (inactive); in assay [8], greater than 100 µM. For the same molecule, the GI50 in assay [9], in assay [15], in assay [10], in assay [12], in [13] and in assay [16] was > 100 µM (inactive) each time. Also, the GI50 in assay [14] was > 100 µM (inactive).
Turning to `NC(CCCC(N)P(=O)(O)O)P(=O)(O)O` (stereo not drawn), the GI50 in assay [1] was > 100 µM (inactive); in assay [2], > 100 µM (inactive); in [3], > 100 µM (inactive); in assay [4] it was > 100 µM (inactive); in assay [7], > 100 µM (inactive); in assay [8], greater than 100 µM. Also, the GI50 in assay [9], in assay [15], in assay [10], in assay [11], in assay [17] and in assay [13] was > 100 µM (inactive) each time. Moreover, the GI50 in [16] and in assay [14] was > 100 µM (inactive) in each case.
For `COC(=O)c1ccc(CS(=O)(=O)c2ccccc2)cc1`, the GI50 in [1] was > 100 µM (inactive); in assay [2] it was > 100 µM (inactive); in [3] it was 59.4 µM (inactive); in assay [4], > 100 µM (inactive); in assay [5] it was > 100 µM (inactive); in assay [6], 38.5 µM (inactive). In addition, the GI50 in assay [7] is > 100 µM (inactive); in assay [8] it was 39.5 µM; in assay [9], > 100 µM (inactive); in assay [10], > 100 µM (inactive); in assay [11], 61.7 µM (inactive); in [17] it was > 100 µM (inactive). Moreover, the GI50 in assay [12], in [13], in assay [16] and in assay [14] was > 100 µM (inactive) in each case.
As to `C=C1C(=O)c2cc3c(cc2C(c2cc(OC)c(OC)c(OC)c2)[C@@H]1C(=O)O)OCO3` (stereo partly drawn), the GI50 was > 100 µM (inactive) in [1]; 67 µM (inactive) in assay [2]; 39.3 µM (inactive) in assay [3]; 33 µM (inactive) in assay [4]; 32.1 µM (inactive) in [7]; 38 µM in assay [8]. Besides, the GI50 in assay [9] is 51.5 µM (inactive); in [15] it was 32.6 µM (inactive); in [10], 57.7 µM (inactive); in [11] it was 38.3 µM (inactive); in assay [17] it was > 100 µM (inactive); in assay [13], > 100 µM (inactive). The GI50 in assay [16] is 42.6 µM (inactive); in [14] it was 37.9 µM (inactive).
In the case of `C/C=C(\NC(=O)C(CCCCN)NC(=O)C(C)NC(=O)C1CSC(C)C(NC(=O)C2CSCC(NC(=O)C(C)NC(=O)C(N)C(C)CC)C(=O)NC(CCCCN)C(=O)NC(Cc3ccccc3)C(=O)NC(CC(C)C)C(=O)N2)C(=O)N2CCCC2C(=O)NCC(=O)N1)C(=O)NCC(=O)NC1CSCC2NC(=O)C(Cc3ccc(O)cc3)NC(=O)C(CSC=CNC2=O)NC(=O)C(CC(N)=O)NC(=O)C(Cc2ccccc2)NC1=O` (stereo not drawn), the GI50 in [1], in assay [3], in assay [4], in assay [5], in [6] and in assay [7] was > 100 µM (inactive) throughout. Further, the GI50 in [8] is greater than 100 µM; in [9] it was > 100 µM (inactive); in assay [10], > 100 µM (inactive); in assay [11], > 100 µM (inactive); in assay [12], > 100 µM (inactive); in [13], 65 µM (inactive). Besides, the GI50 in assay [14] is > 100 µM (inactive).

(Values after ChEMBL document CHEMBL1201862, “PubChem BioAssay data set” (2004).)
